Test results from patent US4092313A, “Preparation of 5-fluoropyrimidin-4-one derivatives” (Taisho Pharmaceutical Company Limited, priority 1975, dated 1978).

How the values were obtained:
Ehrlich carcinoma = test: Anti-tumor effect, Ehrlich carcinoma subcutaneously transplanted in mouse; format: in vivo; conditions: oral, once daily for 7 days, tumor weighed on 10th day
Protocol: (§1) Cells of Ehrlich carcinoma or sarcoma 180, 5 × 10^6 in number, are subcutaneously transplanted in a mouse. Twenty-four hours after the transplantation and during a subsequent period, the compound of this invention is orally given to the test animal once every day for 7 consecutive days. On the 10th day from the transplantation, the weight of tumor in the test animal is measured to determine the percentage of inhibition achieved by the compound relative to the weight of tumor in the control group.

[1] = Acute toxicity, oral administration to mice, LD50 (method of Litchfield and Wilcoxon); format: in vivo; conditions: mouse, in vivo; for LD50 at 336 h: checked 2 weeks later; for LD50 at 504 h: checked 3 weeks later; for LD50 at 72 h: checked 3 days later; for LD50 at 168 h: checked one week later, read-out: LD50, 1 Week
Source text: (§2) The compound of this invention is orally administered to mice, and the mice are checked 3 days, one week, 2 weeks and 3 weeks later for motality in terms of LD50 calculated according to the method of Litchfield and Wilcoxon.

sarcoma 180 = test: Anti-tumor effect, sarcoma 180 subcutaneously transplanted in mouse; format: in vivo; conditions: oral, once daily for 7 days, tumor weighed on 10th day
Protocol: as §1

transplanted tumors = conditions: literature; cited from earlier work
mice = test: Acute toxicity, oral administration to mice, LD50 (method of Litchfield and Wilcoxon); format: in vivo
Source text: as §2

[2] = continued administration, clinical; cited from earlier work

O=c1[nH]c(OCc2ccccc2)ncc1F [2-Benzyloxy-5-fluoropyrimidin-4-one, 2-benzyloxy-5-fluoropyrimidin-4-one]
Inhibition percentage, Ehrlich carcinoma (tumor weight relative to control) (Ehrlich carcinoma; 90 mg/kg/day): 52%
LD50 at 336 h [1]: 894 mg/kg
LD50 at 504 h [1]: 894 mg/kg
LD50 at 72 h [1]: 894 mg/kg
LD50 at 168 h [1]: 894 mg/kg
Inhibition percentage, sarcoma 180 (tumor weight relative to control) (sarcoma 180; 90 mg/kg/day): 70%

CCCCOc1ncc(F)c(=O)[nH]1 [2-n-Butoxy-5-fluoropyrimidin-4-one, 2-n-butoxy-5-fluoropyrimidin-4-one]
Inhibition percentage, Ehrlich carcinoma (tumor weight relative to control) (Ehrlich carcinoma; 90 mg/kg/day): 64%
LD50 at 336 h [1]: 945 mg/kg
LD50 at 504 h [1]: 945 mg/kg
LD50 at 72 h [1]: 945 mg/kg
LD50 at 168 h [1]: 945 mg/kg
Inhibition percentage, sarcoma 180 (tumor weight relative to control) (sarcoma 180; 90 mg/kg/day): 62%

O=c1[nH]cc(F)c(=O)[nH]1 [5-Fluorouracil, 5-fluorouracil, reference compound]
Inhibition percentage, Ehrlich carcinoma (tumor weight relative to control) (Ehrlich carcinoma; 30 mg/kg/day): 61%
inhibition of transplanted tumors (transplanted tumors): found to inhibit transplanted tumors
LD50, 2 Weeks (mice; checked 2 weeks later, 20160 min): 145 mg/kg
LD50, 1 Week (mice; checked one week later, 10080 min): 200 mg/kg
Inhibition percentage, sarcoma 180 (tumor weight relative to control) (sarcoma 180; 30 mg/kg/day): 64%
side effects [2]: loss of appetite, stomatitis, nausea, vomiting and like gastrointestinal disorders, leukopenia, thrombocytopenia and like disorders in the blood, disorders in the liver and kidney
